Laboratory results taken from the OligoGym collection.
Oligonucleotides are given in HELM: sugar(base)linkage, 5' to 3'; d 2'-deoxyribose, r ribose, m 2'-O-methylribose, p phosphate. ss, as = sense and antisense strand

The substances below were run against UBE2D3 (assay: reporter assay of Huesken 2005). Conditions: siRNA.
Also: test concentration or dose not given here.

First: RNA1{r(C)p.r(A)p.r(U)p.r(U)p.r(G)p.r(G)p.r(C)p.r(A)p.r(A)p.r(G)p.r(C)p.r(C)p.r(A)p.r(C)p.r(A)p.r(A)p.r(U)p.r(U)p.r(A)p.d(T)p.d(T)}|RNA2{r(U)p.r(A)p.r(A)p.r(U)p.r(U)p.r(G)p.r(U)p.r(G)p.r(G)p.r(C)p.r(U)p.r(U)p.r(G)p.r(C)p.r(C)p.r(A)p.r(A)p.r(U)p.r(G)p.d(A)p.d(A)}$$$RNA1{StrandType:ss}|RNA2{StrandType:as}$
Second: RNA1{r(C)p.r(A)p.r(U)p.r(U)p.r(U)p.r(A)p.r(C)p.r(A)p.r(A)p.r(C)p.r(A)p.r(A)p.r(G)p.r(A)p.r(A)p.r(U)p.r(U)p.r(U)p.r(A)p.d(T)p.d(T)}|RNA2{r(U)p.r(A)p.r(A)p.r(A)p.r(U)p.r(U)p.r(C)p.r(U)p.r(U)p.r(G)p.r(U)p.r(U)p.r(G)p.r(U)p.r(A)p.r(A)p.r(A)p.r(U)p.r(G)p.d(C)p.d(A)}$$$RNA1{StrandType:ss}|RNA2{StrandType:as}$
The normalised inhibition (eCFP-eYFP dual reporter) of the first is higher: 100% for the first, 70% for the second.

Compared with “RNA1{r(C)p.r(C)p.r(A)p.r(G)p.r(A)p.r(G)p.r(A)p.r(U)p.r(U)p.r(G)p.r(C)p.r(A)p.r(C)p.r(G)p.r(G)p.r(A)p.r(U)p.r(C)p.r(U)p.d(T)p.d(T)}|RNA2{r(A)p.r(G)p.r(A)p.r(U)p.r(C)p.r(C)p.r(G)p.r(U)p.r(G)p.r(C)p.r(A)p.r(A)p.r(U)p.r(C)p.r(U)p.r(C)p.r(U)p.r(G)p.r(G)p.d(C)p.d(A)}$$$RNA1{StrandType:ss}|RNA2{StrandType:as}$”, “RNA1{r(C)p.r(C)p.r(A)p.r(U)p.r(U)p.r(U)p.r(G)p.r(U)p.r(U)p.r(C)p.r(A)p.r(C)p.r(U)p.r(G)p.r(C)p.r(U)p.r(A)p.r(U)p.r(G)p.d(T)p.d(T)}|RNA2{r(C)p.r(A)p.r(U)p.r(A)p.r(G)p.r(C)p.r(A)p.r(G)p.r(U)p.r(G)p.r(A)p.r(A)p.r(C)p.r(A)p.r(A)p.r(A)p.r(U)p.r(G)p.r(G)p.d(A)p.d(T)}$$$RNA1{StrandType:ss}|RNA2{StrandType:as}$” is higher in normalised inhibition (eCFP-eYFP dual reporter): 82% for the first, 94.5% for the second.

First: RNA1{r(C)p.r(C)p.r(U)p.r(A)p.r(C)p.r(A)p.r(G)p.r(A)p.r(C)p.r(U)p.r(A)p.r(C)p.r(C)p.r(C)p.r(C)p.r(U)p.r(U)p.r(C)p.r(A)p.d(T)p.d(T)}|RNA2{r(U)p.r(G)p.r(A)p.r(A)p.r(G)p.r(G)p.r(G)p.r(G)p.r(U)p.r(A)p.r(G)p.r(U)p.r(C)p.r(U)p.r(G)p.r(U)p.r(A)p.r(G)p.r(G)p.d(A)p.d(A)}$$$RNA1{StrandType:ss}|RNA2{StrandType:as}$
Second: RNA1{r(C)p.r(C)p.r(U)p.r(A)p.r(G)p.r(U)p.r(G)p.r(C)p.r(C)p.r(A)p.r(G)p.r(A)p.r(G)p.r(A)p.r(U)p.r(U)p.r(G)p.r(C)p.r(A)p.d(T)p.d(T)}|RNA2{r(U)p.r(G)p.r(C)p.r(A)p.r(A)p.r(U)p.r(C)p.r(U)p.r(C)p.r(U)p.r(G)p.r(G)p.r(C)p.r(A)p.r(C)p.r(U)p.r(A)p.r(G)p.r(G)p.d(G)p.d(G)}$$$RNA1{StrandType:ss}|RNA2{StrandType:as}$
The normalised inhibition (eCFP-eYFP dual reporter) of the first is higher: 99.9% for the first, 86.2% for the second.

First: RNA1{r(C)p.r(C)p.r(U)p.r(U)p.r(C)p.r(A)p.r(A)p.r(A)p.r(C)p.r(C)p.r(A)p.r(C)p.r(C)p.r(U)p.r(A)p.r(A)p.r(G)p.r(G)p.r(U)p.d(T)p.d(T)}|RNA2{r(A)p.r(C)p.r(C)p.r(U)p.r(U)p.r(A)p.r(G)p.r(G)p.r(U)p.r(G)p.r(G)p.r(U)p.r(U)p.r(U)p.r(G)p.r(A)p.r(A)p.r(G)p.r(G)p.d(G)p.d(G)}$$$RNA1{StrandType:ss}|RNA2{StrandType:as}$
Second: RNA1{r(C)p.r(U)p.r(A)p.r(A)p.r(G)p.r(G)p.r(U)p.r(U)p.r(G)p.r(C)p.r(A)p.r(U)p.r(U)p.r(U)p.r(A)p.r(C)p.r(A)p.r(A)p.r(C)p.d(T)p.d(T)}|RNA2{r(G)p.r(U)p.r(U)p.r(G)p.r(U)p.r(A)p.r(A)p.r(A)p.r(U)p.r(G)p.r(C)p.r(A)p.r(A)p.r(C)p.r(C)p.r(U)p.r(U)p.r(A)p.r(G)p.d(G)p.d(T)}$$$RNA1{StrandType:ss}|RNA2{StrandType:as}$
The normalised inhibition (eCFP-eYFP dual reporter) of the first is higher: 94.5% for the first, 80.9% for the second.

Going from “RNA1{r(C)p.r(U)p.r(A)p.r(C)p.r(A)p.r(G)p.r(A)p.r(C)p.r(U)p.r(A)p.r(C)p.r(C)p.r(C)p.r(C)p.r(U)p.r(U)p.r(C)p.r(A)p.r(A)p.d(T)p.d(T)}|RNA2{r(U)p.r(U)p.r(G)p.r(A)p.r(A)p.r(G)p.r(G)p.r(G)p.r(G)p.r(U)p.r(A)p.r(G)p.r(U)p.r(C)p.r(U)p.r(G)p.r(U)p.r(A)p.r(G)p.d(G)p.d(A)}$$$RNA1{StrandType:ss}|RNA2{StrandType:as}$” to “RNA1{r(C)p.r(U)p.r(A)p.r(U)p.r(G)p.r(U)p.r(G)p.r(A)p.r(U)p.r(C)p.r(C)p.r(A)p.r(A)p.r(A)p.r(C)p.r(C)p.r(C)p.r(A)p.r(G)p.d(T)p.d(T)}|RNA2{r(C)p.r(U)p.r(G)p.r(G)p.r(G)p.r(U)p.r(U)p.r(U)p.r(G)p.r(G)p.r(A)p.r(U)p.r(C)p.r(A)p.r(C)p.r(A)p.r(U)p.r(A)p.r(G)p.d(C)p.d(A)}$$$RNA1{StrandType:ss}|RNA2{StrandType:as}$”, the normalised inhibition (eCFP-eYFP dual reporter) rises from 94.9% to 95.8%.

Compared with “RNA1{r(C)p.r(U)p.r(G)p.r(C)p.r(U)p.r(U)p.r(U)p.r(A)p.r(A)p.r(C)p.r(A)p.r(A)p.r(U)p.r(U)p.r(U)p.r(C)p.r(U)p.r(A)p.r(A)p.d(T)p.d(T)}|RNA2{r(U)p.r(U)p.r(A)p.r(G)p.r(A)p.r(A)p.r(A)p.r(U)p.r(U)p.r(G)p.r(U)p.r(U)p.r(A)p.r(A)p.r(A)p.r(G)p.r(C)p.r(A)p.r(G)p.d(G)p.d(C)}$$$RNA1{StrandType:ss}|RNA2{StrandType:as}$”, “RNA1{r(C)p.r(U)p.r(U)p.r(U)p.r(U)p.r(A)p.r(U)p.r(C)p.r(C)p.r(A)p.r(U)p.r(U)p.r(U)p.r(G)p.r(U)p.r(U)p.r(C)p.r(A)p.r(C)p.d(T)p.d(T)}|RNA2{r(G)p.r(U)p.r(G)p.r(A)p.r(A)p.r(C)p.r(A)p.r(A)p.r(A)p.r(U)p.r(G)p.r(G)p.r(A)p.r(U)p.r(A)p.r(A)p.r(A)p.r(A)p.r(G)p.d(A)p.d(A)}$$$RNA1{StrandType:ss}|RNA2{StrandType:as}$” is lower in normalised inhibition (eCFP-eYFP dual reporter): 89.7% for the first, 27% for the second.

Compared with “RNA1{r(G)p.r(A)p.r(C)p.r(A)p.r(A)p.r(U)p.r(U)p.r(C)p.r(A)p.r(U)p.r(U)p.r(U)p.r(U)p.r(C)p.r(C)p.r(U)p.r(A)p.r(C)p.r(A)p.d(T)p.d(T)}|RNA2{r(U)p.r(G)p.r(U)p.r(A)p.r(G)p.r(G)p.r(A)p.r(A)p.r(A)p.r(A)p.r(U)p.r(G)p.r(A)p.r(A)p.r(U)p.r(U)p.r(G)p.r(U)p.r(C)p.d(A)p.d(A)}$$$RNA1{StrandType:ss}|RNA2{StrandType:as}$”, “RNA1{r(G)p.r(A)p.r(C)p.r(U)p.r(A)p.r(C)p.r(C)p.r(C)p.r(C)p.r(U)p.r(U)p.r(C)p.r(A)p.r(A)p.r(A)p.r(C)p.r(C)p.r(A)p.r(C)p.d(T)p.d(T)}|RNA2{r(G)p.r(U)p.r(G)p.r(G)p.r(U)p.r(U)p.r(U)p.r(G)p.r(A)p.r(A)p.r(G)p.r(G)p.r(G)p.r(G)p.r(U)p.r(A)p.r(G)p.r(U)p.r(C)p.d(T)p.d(G)}$$$RNA1{StrandType:ss}|RNA2{StrandType:as}$” is lower in normalised inhibition (eCFP-eYFP dual reporter): 92.3% for the first, 87.6% for the second.

Going from “RNA1{r(G)p.r(A)p.r(U)p.r(C)p.r(C)p.r(A)p.r(A)p.r(A)p.r(C)p.r(C)p.r(C)p.r(A)p.r(G)p.r(A)p.r(U)p.r(G)p.r(A)p.r(C)p.r(C)p.d(T)p.d(T)}|RNA2{r(G)p.r(G)p.r(U)p.r(C)p.r(A)p.r(U)p.r(C)p.r(U)p.r(G)p.r(G)p.r(G)p.r(U)p.r(U)p.r(U)p.r(G)p.r(G)p.r(A)p.r(U)p.r(C)p.d(A)p.d(C)}$$$RNA1{StrandType:ss}|RNA2{StrandType:as}$” to “RNA1{r(G)p.r(A)p.r(U)p.r(G)p.r(A)p.r(U)p.r(A)p.r(U)p.r(G)p.r(U)p.r(U)p.r(U)p.r(C)p.r(A)p.r(U)p.r(U)p.r(G)p.r(G)p.r(C)p.d(T)p.d(T)}|RNA2{r(G)p.r(C)p.r(C)p.r(A)p.r(A)p.r(U)p.r(G)p.r(A)p.r(A)p.r(A)p.r(C)p.r(A)p.r(U)p.r(A)p.r(U)p.r(C)p.r(A)p.r(U)p.r(C)p.d(C)p.d(C)}$$$RNA1{StrandType:ss}|RNA2{StrandType:as}$”, the normalised inhibition (eCFP-eYFP dual reporter) rises from 56.5% to 66.1%.

Going from “RNA1{r(G)p.r(A)p.r(U)p.r(U)p.r(G)p.r(C)p.r(A)p.r(C)p.r(G)p.r(G)p.r(A)p.r(U)p.r(C)p.r(U)p.r(A)p.r(U)p.r(A)p.r(A)p.r(A)p.d(T)p.d(T)}|RNA2{r(U)p.r(U)p.r(U)p.r(A)p.r(U)p.r(A)p.r(G)p.r(A)p.r(U)p.r(C)p.r(C)p.r(G)p.r(U)p.r(G)p.r(C)p.r(A)p.r(A)p.r(U)p.r(C)p.d(T)p.d(C)}$$$RNA1{StrandType:ss}|RNA2{StrandType:as}$” to “RNA1{r(G)p.r(C)p.r(A)p.r(A)p.r(G)p.r(C)p.r(C)p.r(A)p.r(C)p.r(A)p.r(A)p.r(U)p.r(U)p.r(A)p.r(U)p.r(G)p.r(G)p.r(G)p.r(A)p.d(T)p.d(T)}|RNA2{r(U)p.r(C)p.r(C)p.r(C)p.r(A)p.r(U)p.r(A)p.r(A)p.r(U)p.r(U)p.r(G)p.r(U)p.r(G)p.r(G)p.r(C)p.r(U)p.r(U)p.r(G)p.r(C)p.d(C)p.d(A)}$$$RNA1{StrandType:ss}|RNA2{StrandType:as}$”, the normalised inhibition (eCFP-eYFP dual reporter) falls from 92.4% to 75.8%.

First: RNA1{r(G)p.r(C)p.r(A)p.r(C)p.r(A)p.r(A)p.r(U)p.r(G)p.r(U)p.r(U)p.r(C)p.r(U)p.r(G)p.r(C)p.r(A)p.r(G)p.r(G)p.r(U)p.r(C)p.d(T)p.d(T)}|RNA2{r(G)p.r(A)p.r(C)p.r(C)p.r(U)p.r(G)p.r(C)p.r(A)p.r(G)p.r(A)p.r(A)p.r(C)p.r(A)p.r(U)p.r(U)p.r(G)p.r(U)p.r(G)p.r(C)p.d(T)p.d(G)}$$$RNA1{StrandType:ss}|RNA2{StrandType:as}$
Second: RNA1{r(G)p.r(G)p.r(C)p.r(A)p.r(A)p.r(G)p.r(C)p.r(C)p.r(A)p.r(C)p.r(A)p.r(A)p.r(U)p.r(U)p.r(A)p.r(U)p.r(G)p.r(G)p.r(G)p.d(T)p.d(T)}|RNA2{r(C)p.r(C)p.r(C)p.r(A)p.r(U)p.r(A)p.r(A)p.r(U)p.r(U)p.r(G)p.r(U)p.r(G)p.r(G)p.r(C)p.r(U)p.r(U)p.r(G)p.r(C)p.r(C)p.d(A)p.d(A)}$$$RNA1{StrandType:ss}|RNA2{StrandType:as}$
The normalised inhibition (eCFP-eYFP dual reporter) of the first is higher: 100% for the first, 60.2% for the second.
